Data from PMC9120017, “Inhibition mechanism of the chloride channel TMEM16A by the pore blocker 1PBC” (Nature Communications, 2022).
Where two headings read alike, the source gives them in different places.

Biological target: T1, mouse TMEM16A mutant Q637A (Mus musculus, UniProt Q8BHY3, Q637A)
T1 construct: expressed in transfected cells; host or cells: HEK293T
T1 sequence (Q8BHY3 1-960 Q637A): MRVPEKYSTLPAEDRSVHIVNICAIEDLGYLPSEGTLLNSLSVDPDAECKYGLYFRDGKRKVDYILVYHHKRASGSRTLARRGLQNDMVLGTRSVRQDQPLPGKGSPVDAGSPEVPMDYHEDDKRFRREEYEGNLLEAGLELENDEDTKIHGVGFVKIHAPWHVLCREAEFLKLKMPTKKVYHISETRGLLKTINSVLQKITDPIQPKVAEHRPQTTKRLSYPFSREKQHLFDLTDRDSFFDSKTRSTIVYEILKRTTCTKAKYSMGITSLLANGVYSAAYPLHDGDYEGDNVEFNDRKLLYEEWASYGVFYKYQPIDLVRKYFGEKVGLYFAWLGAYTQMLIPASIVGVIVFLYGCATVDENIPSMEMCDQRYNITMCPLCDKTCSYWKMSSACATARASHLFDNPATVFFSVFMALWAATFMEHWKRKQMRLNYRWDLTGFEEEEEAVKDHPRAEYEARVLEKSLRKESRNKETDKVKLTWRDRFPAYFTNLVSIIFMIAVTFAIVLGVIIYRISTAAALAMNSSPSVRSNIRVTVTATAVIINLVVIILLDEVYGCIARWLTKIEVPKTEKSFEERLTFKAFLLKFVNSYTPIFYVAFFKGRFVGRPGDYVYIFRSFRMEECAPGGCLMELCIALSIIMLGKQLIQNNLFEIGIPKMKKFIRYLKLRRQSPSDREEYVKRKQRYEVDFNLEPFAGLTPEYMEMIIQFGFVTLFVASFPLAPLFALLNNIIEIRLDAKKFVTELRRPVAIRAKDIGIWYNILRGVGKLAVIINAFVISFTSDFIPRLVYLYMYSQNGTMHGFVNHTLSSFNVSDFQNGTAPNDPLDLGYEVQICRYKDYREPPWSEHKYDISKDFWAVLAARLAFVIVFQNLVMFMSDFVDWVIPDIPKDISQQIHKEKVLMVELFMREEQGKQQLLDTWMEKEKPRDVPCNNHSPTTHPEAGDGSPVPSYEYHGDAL
Experiment: Inside-out patch recording of 1PBC block, mutant Q637A
Assay type: cell-based
Conditions: for remaining activity at 1 µM: 1PBC conc 1; for remaining activity at 1 µM / remaining activity at 3 µM / remaining activity at 10 µM / remaining activity at 30 µM: read-out: relative current in 1PBC (avr); for remaining activity at 3 µM: 1PBC conc 3; for remaining activity at 10 µM: 1PBC conc 10; for remaining activity at 30 µM: 1PBC conc 30
Procedure: HEK293T cells (ATCC CRL-1573) were maintained in Dulbecco’s modified Eagle’s medium (DMEM; Sigma-Aldrich) supplemented with 10 U ml^−1 penicillin, 0.1 mg ml^−1 streptomycin (Sigma-Aldrich), 2 mM L-glutamine (Sigma-Aldrich), and 10% FBS (Sigma-Aldrich) in a humidified atmosphere containing 5% CO2 at 37 °C. HEK293S GnTI^− cells (ATCC CRL-3022) were maintained in HyClone HyCell TransFx-H medium (GE Healthcare) supplemented with 10 U ml^−1 penicillin, 0.1 mg ml^−1 streptomycin, 4 mM L-glutamine, 0.15% poloxamer 188 (Sigma-Aldrich), and 1% FBS in an atmosphere containing 5% CO2 at 185 rpm at 37 °C. The ac splice variant of mouse TMEM16A (UniProt ID: Q8BHY3), mouse TMEM16B (UniProt ID: Q8CFW1), or mouse TMEM16F (UniProt ID: Q6P9J9) bearing a 3C cleavage site, a Venus YFP, a Myc tag, and a Streptavidin-binding peptide (SBP) downstream of the open reading frame in a modified pcDNA3.1 vector (Invitrogen) were used as described previously[21],[31]. Mutations were introduced using a modified QuikChange method[58] and were verified by sequencing.
HEK293T cells were transfected with 3–4 μg DNA per 6 cm Petri dish using the calcium phosphate co-precipitation method and were used within 24–96 h after transfection. Recordings were performed on inside-out patches excised from HEK293T cells expressing the construct of interest. Patch pipettes were pulled from borosilicate glass capillaries (O.D. 1.5 mm, I.D. 0.86 mm, Sutter Instrument) and were fire-polished with a microforge (Narishige) before use. Pipette resistance was typically 3–8 MΩ when filled with the recording solutions detailed below. Seal resistance was typically 4 GΩ or higher. Voltage-clamp recordings were made using Axopatch 200B, Digidata 1550, and Clampex 10.7 (Molecular Devices). Analog signals were filtered with the in-built 4-pole Bessel filter at 10 kHz and were digitized at 20 kHz. Solution exchange was achieved using a gravity-fed system through a theta glass pipette mounted on an ultra-fast piezo-driven stepper (Siskiyou). […] All recordings were performed at 20 °C.
A symmetrical ionic condition was used throughout. Stock solution with Ca^2+-EGTA contained 150 mM NaCl, 5.99 mM Ca(OH)2, 5 mM EGTA, and 10 mM HEPES at pH 7.40. Stock solution with EGTA contained 150 mM NaCl, 5 mM EGTA, and 10 mM HEPES at pH 7.40. Free Ca^2+ concentrations were adjusted by mixing the stock solutions at the required ratios calculated using the WEBMAXC program (http://web.stanford.edu/~cpatton/webmaxcS.htm). Patch pipettes were filled with the stock solution with Ca^2+-EGTA, which has a free Ca^2+ concentration of 1 mM. 1PBC (ChemBridge) stock was reconstituted in anhydrous DMSO (Sigma-Aldrich) at 100 mM and stored at −20 °C. Working solutions with 1PBC were prepared by serial dilution. Unless otherwise stated, experiments were performed at a saturating Ca^2+ concentration as shown in Supplementary Table 1 and the primary data were corrected for current rundown as described previously[21],[25].
Concentration-response relations, obtained from the ratio of the I-V plots before and after the application of the blocker, were fitted to the Hill equation,1 I/Imax=1/1+IC50/[blocker]^h where I/Imax is the normalized current responses, IC50 defines the concentration at which inhibition is at its half-maximum, and h is the Hill coefficient.

- IC50 (0 mV, 2 µM Ca2+): 1820 nM
- remaining activity at 1 µM (0 mV): 65.8%
- remaining activity at 3 µM (0 mV): 36.3%
- remaining activity at 10 µM (0 mV): 15.5%
- remaining activity at 30 µM (0 mV): 6.35%
- IC50 (20 mV, 2 µM Ca2+): 1400 nM
- remaining activity at 1 µM (20 mV): 59.7%
- remaining activity at 3 µM (20 mV): 30.3%
- remaining activity at 10 µM (20 mV): 12.3%
- remaining activity at 30 µM (20 mV): 4.62%
- IC50 (40 mV, 2 µM Ca2+): 1150 nM
- remaining activity at 1 µM (40 mV): 54.8%
- remaining activity at 3 µM (40 mV): 26.2%
- remaining activity at 10 µM (40 mV): 10.3%
- remaining activity at 30 µM (40 mV): 3.87%
- IC50 (60 mV, 2 µM Ca2+): 956 nM
- remaining activity at 1 µM (60 mV): 49.7%
- remaining activity at 3 µM (60 mV): 22.8%
- remaining activity at 10 µM (60 mV): 9%
- remaining activity at 30 µM (60 mV): 3.77%
- log-fold IC50 (change of mutant vs WT) (80 mV): -0.3333
- IC50 (80 mV, 2 µM Ca2+): 880 nM
- remaining activity at 1 µM (80 mV): 47.5%
- remaining activity at 3 µM (80 mV): 21%
- remaining activity at 10 µM (80 mV): 9.17%
- remaining activity at 30 µM (80 mV): 3.99%
- IC50 (100 mV, 2 µM Ca2+): 898 nM
- remaining activity at 1 µM (100 mV): 48.7%
- remaining activity at 3 µM (100 mV): 20.5%
- remaining activity at 10 µM (100 mV): 9.32%
- remaining activity at 30 µM (100 mV): 4.29%
- IC50 (120 mV, 2 µM Ca2+): 985 nM
- remaining activity at 1 µM (120 mV): 50.9%
- remaining activity at 3 µM (120 mV): 22%
- remaining activity at 10 µM (120 mV): 10.5%
- remaining activity at 30 µM (120 mV): 5.23%
- IC50 (140 mV, 2 µM Ca2+): 1170 nM
- remaining activity at 1 µM (140 mV): 55.6%
- remaining activity at 3 µM (140 mV): 24.7%
- remaining activity at 10 µM (140 mV): 12.4%
- remaining activity at 30 µM (140 mV): 6.82%
- IC50 (-20 mV, 2 µM Ca2+): 2340 nM
- remaining activity at 1 µM (-20 mV): 71.8%
- remaining activity at 3 µM (-20 mV): 42.4%
- remaining activity at 10 µM (-20 mV): 18.6%
- remaining activity at 30 µM (-20 mV): 8.09%
- IC50 (-40 mV, 2 µM Ca2+): 3080 nM
- remaining activity at 1 µM (-40 mV): 76.6%
- remaining activity at 3 µM (-40 mV): 49.5%
- remaining activity at 10 µM (-40 mV): 23.3%
- remaining activity at 30 µM (-40 mV): 10.7%
- IC50 (-60 mV, 2 µM Ca2+): 4040 nM
- remaining activity at 1 µM (-60 mV): 81.3%
- remaining activity at 3 µM (-60 mV): 56.4%
- remaining activity at 10 µM (-60 mV): 28.3%
- remaining activity at 30 µM (-60 mV): 13.4%
- IC50 (-80 mV, 2 µM Ca2+): 5190 nM
- remaining activity at 1 µM (-80 mV): 84.8%
- remaining activity at 3 µM (-80 mV): 62.7%
- remaining activity at 10 µM (-80 mV): 33.3%
- remaining activity at 30 µM (-80 mV): 16.6%
- IC50 (-100 mV, 2 µM Ca2+): 6660 nM
- remaining activity at 1 µM (-100 mV): 87.3%
- remaining activity at 3 µM (-100 mV): 68.5%
- remaining activity at 10 µM (-100 mV): 38.7%
- remaining activity at 30 µM (-100 mV): 20.5%
- IC50 (-120 mV, 2 µM Ca2+): 8290 nM
- remaining activity at 1 µM (-120 mV): 88.8%
- remaining activity at 3 µM (-120 mV): 72.5%
- remaining activity at 10 µM (-120 mV): 44.2%
- remaining activity at 30 µM (-120 mV): 24.7%
- IC50 (-140 mV, 2 µM Ca2+): 10200 nM
- remaining activity at 1 µM (-140 mV): 89.3%
- remaining activity at 3 µM (-140 mV): 76.3%
- remaining activity at 10 µM (-140 mV): 49.3%
- remaining activity at 30 µM (-140 mV): 28.8%
- IC50 (Q637A, V 0 mV): 1820 nM
- IC50 (Q637A, V 20 mV): 1400 nM
- IC50 (Q637A, V 40 mV): 1150 nM
- IC50 (Q637A, V 60 mV): 956 nM
- IC50 (Q637A, V 80 mV): 880 nM
- IC50 (Q637A, V 100 mV): 898 nM
- IC50 (Q637A, V 120 mV): 985 nM
- IC50 (Q637A, V 140 mV): 1170 nM
- IC50 (Q637A, V -20 mV): 2340 nM
- IC50 (Q637A, V -40 mV): 3080 nM
- IC50 (Q637A, V -60 mV): 4040 nM
- IC50 (Q637A, V -80 mV): 5190 nM
- IC50 (Q637A, V -100 mV): 6660 nM
- IC50 (Q637A, V -120 mV): 8290 nM
- IC50 (Q637A, V -140 mV): 10200 nM
SMILES: N#Cc1c(C(F)(F)F)cc(O)n2c1nc1ccccc12 [1PBC]
